Experiment [1] deals with human Orexin type 1 receptors (Homo sapiens (Human), UniProt O43613). The experiment in a line: Scintillation Proximity Assay (SPA) binding assay, [3H]SB-674042 displacement, CHO-hOX1 membranes. As to conditions: Table 2, [3H]SB-674042 2 nM.
Experiment [2] concerns the target human Orexin type 2 receptors (Homo sapiens (Human), UniProt O43614). The experiment in a line: Scintillation Proximity Assay (SPA) binding assay, [3H]EMPA displacement, HEK-hOX2 membranes. As to conditions: Table 2, [3H]EMPA 2 nM.

Molecules are shown by their SMILES.

Chain of human Orexin type 1 receptors (O43613 whole entry): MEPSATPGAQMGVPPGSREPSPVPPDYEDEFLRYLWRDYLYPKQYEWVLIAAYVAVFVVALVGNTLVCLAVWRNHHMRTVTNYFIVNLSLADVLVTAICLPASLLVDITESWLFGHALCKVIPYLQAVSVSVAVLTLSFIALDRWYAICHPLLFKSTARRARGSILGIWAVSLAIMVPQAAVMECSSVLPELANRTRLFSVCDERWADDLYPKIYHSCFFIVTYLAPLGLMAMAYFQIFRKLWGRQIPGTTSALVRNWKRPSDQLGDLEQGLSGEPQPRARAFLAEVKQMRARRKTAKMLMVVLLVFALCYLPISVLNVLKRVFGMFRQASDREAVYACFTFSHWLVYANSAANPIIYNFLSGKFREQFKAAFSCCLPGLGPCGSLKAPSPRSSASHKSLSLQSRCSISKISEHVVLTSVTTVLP
Chain of human Orexin type 2 receptors (O43614 whole entry): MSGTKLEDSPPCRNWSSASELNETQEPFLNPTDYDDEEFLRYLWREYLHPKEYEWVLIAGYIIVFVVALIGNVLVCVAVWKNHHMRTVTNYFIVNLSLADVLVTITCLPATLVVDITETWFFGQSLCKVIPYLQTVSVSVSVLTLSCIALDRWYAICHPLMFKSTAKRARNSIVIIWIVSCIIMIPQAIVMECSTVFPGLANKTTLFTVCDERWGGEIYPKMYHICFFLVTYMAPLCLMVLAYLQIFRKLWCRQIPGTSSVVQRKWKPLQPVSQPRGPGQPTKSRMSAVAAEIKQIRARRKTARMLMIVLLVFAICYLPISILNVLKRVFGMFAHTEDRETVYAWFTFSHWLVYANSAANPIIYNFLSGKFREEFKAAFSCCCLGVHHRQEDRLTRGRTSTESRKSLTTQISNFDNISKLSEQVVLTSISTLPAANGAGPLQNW

With `C[C@@H]1C2CC(C2)N(C(=O)c2cc(F)ccc2-n2nccn2)C1CNc1ccc(C(F)(F)F)cn1` (mixture of isomers) [Example 190, cis-N-({2-[5-fluoro-2-(2H-1,2,3-triazol-2-yl)benzoyl]-4-methyl-2-azabicyclo[3.1.1]heptan-3-yl}methyl)-5-(trifluoromethyl)pyridin-2-amine], the “OX1 pKi (SPA binding)” value in experiment [1] turned out to be 7.8. Besides, the “OX2 pKi (SPA binding)” value in experiment [2] was 4.98.

As for `Cc1ccc(-n2nccn2)c(C(=O)N2C3CC(C3)[C@@H](C)C2CNc2ncc(C(F)(F)F)cn2)n1` (mixture of isomers) [Example 193, cis-N-({4-methyl-2-[6-methyl-3-(2H-1,2,3-triazol-2-yl)pyridine-2-carbonyl]-2-azabicyclo[3.1.1]heptan-3-yl}methyl)-5-(trifluoromethyl)pyrimidin-2-amine], the “OX1 pKi (SPA binding)” value in experiment [1] is given as 7.57. Further, the “OX2 pKi (SPA binding)” value in experiment [2] was determined as 4.64.

In the case of `Cc1ccc(-n2nccn2)c(C(=O)N2C3CC(C3)[C@@H](C)C2CNc2ccc(F)c(C)n2)n1` (mixture of isomers) [Example 196, cis-5-fluoro-6-methyl-N-({4-methyl-2-[6-methyl-3-(2H-1,2,3-triazol-2-yl)pyridine-2-carbonyl]-2-azabicyclo[3.1.1]heptan-3-yl}methyl)pyridin-2-amine], in experiment [1], the “OX1 pKi (SPA binding)” value came to 7.65. Further, the “OX2 pKi (SPA binding)” value in experiment [2] turned out to be 5.74.

Regarding `Cc1ccc(-n2nccn2)c(C(=O)N2C3CC(C3)[C@@H](C)C2CNc2cccc(C(F)(F)F)n2)n1` (mixture of isomers) [Example 197, cis-N-({4-methyl-2-[6-methyl-3-(2H-1,2,3-triazol-2-yl)pyridine-2-carbonyl]-2-azabicyclo[3.1.1]heptan-3-yl}methyl)-6-(trifluoromethyl)pyridin-2-amine], the “OX1 pKi (SPA binding)” value in experiment [1] came to 6.99. Further, the “OX2 pKi (SPA binding)” value in experiment [2] was 5.76.

`Cc1ccc(-n2nccn2)c(C(=O)N2C3CC(C3)[C@@H](C)C2CNc2cnc3cc(F)ccc3n2)n1` (mixture of isomers) [Example 198, cis-6-fluoro-N-({4-methyl-2-[6-methyl-3-(2H-1,2,3-triazol-2-yl)pyridine-2-carbonyl]-2-azabicyclo[3.1.1]heptan-3-yl}methyl)quinoxalin-2-amine]: the “OX1 pKi (SPA binding)” value in experiment [1] is given as 8.07. The “OX2 pKi (SPA binding)” value in experiment [2] was 6.27.

For `Cc1ccc(-n2nccn2)c(C(=O)N2C3CC(C3)[C@@H](C)C2CNc2cnc3cc(F)c(F)cc3n2)n1` (mixture of isomers) [Example 201, cis-6.7-difluoro-N-({4-methyl-2-[6-methyl-3-(2H-1,2,3-triazol-2-yl)pyridine-2-carbonyl]-2-azabicyclo[3.1.1]heptan-3-yl}methyl)quinoxalin-2-amine], in experiment [1], the “OX1 pKi (SPA binding)” value was 7.97. The “OX2 pKi (SPA binding)” value in experiment [2] was 6.55.

For `C[C@@H]1C2CC(C2)N(C(=O)c2cc(Cl)ccc2-n2nccn2)C1CNc1cnc(C(F)(F)F)cn1` (mixture of isomers) [Example 203, cis-N-({2-[5-chloro-2-(2H-1,2,3-triazol-2-yl)benzoyl]-4-methyl-2-azabicyclo[3.1.1]heptan-3-yl}methyl)-5-(trifluoromethyl)pyrazin-2-amine], the “OX1 pKi (SPA binding)” value in experiment [1] is 8.17. The “OX2 pKi (SPA binding)” value in experiment [2] is listed as 5.05.

Consider `C[C@@H]1C2CC(C2)N(C(=O)c2cc(Cl)ccc2-n2nccn2)C1CNc1cnc2ncccc2n1` (mixture of isomers) [Example 206, cis-N-({2-[5-chloro-2-(2H-1,2,3-triazol-2-yl)benzoyl]-4-methyl-2-azabicyclo[3.1.1]heptan-3-yl}methyl)pyrido[2,3-b]pyrazin-2-amine], for which the “OX1 pKi (SPA binding)” value in experiment [1] was found to be 7.79. Also, the “OX2 pKi (SPA binding)” value in experiment [2] is listed as 5.06.

Regarding `C[C@@H]1C2CC(C2)N(C(=O)c2cc(Cl)ccc2-n2nccn2)C1CNc1cnc2cc(F)ccc2n1` (mixture of isomers) [Example 207, cis-N-({2-[5-chloro-2-(2H-1,2,3-triazol-2-yl)benzoyl]-4-methyl-2-azabicyclo[3.1.1]heptan-3-yl}methyl)-6-fluoroquinoxalin-2-amine], the “OX1 pKi (SPA binding)” value in experiment [1] is reported as 8.46. Besides, the “OX2 pKi (SPA binding)” value in experiment [2] is given as 6.44.

As for `C[C@@H]1C2CC(C2)N(C(=O)c2nn(C)cc2-c2ccccc2)C1CNc1ccc(C(F)(F)F)cn1` (mixture of isomers) [Example 210, cis-N-{[4-methyl-2-(1-methyl-4-phenyl-1H-pyrazole-3-carbonyl)-2-azabicyclo[3.1.1]heptan-3-yl]methyl}-5-(trifluoromethyl)pyridin-2-amine], the “OX1 pKi (SPA binding)” value in experiment [1] stood at 8.69. Besides, the “OX2 pKi (SPA binding)” value in experiment [2] worked out at 5.84.

Turning to `Cc1cnc(NCC2[C@H](C)C3CC(C3)N2C(=O)c2nc(C)ccc2-n2nccn2)cn1` (mixture of isomers) [Example 216, cis-5-methyl-N-({4-methyl-2-[6-methyl-3-(2H-1,2,3-triazol-2-yl)pyridine-2-carbonyl]-2-azabicyclo[3.1.1]heptan-3-yl}methyl)pyrazin-2-amine], in experiment [1], the “OX1 pKi (SPA binding)” value is 6.94. Also, in experiment [2], the “OX2 pKi (SPA binding)” value worked out at 4.62.

With `Cc1ccc(-n2nccn2)c(C(=O)N2C3CC(C3)[C@@H](C)C2CNc2cncc(C(F)(F)F)n2)n1` (mixture of isomers) [Example 217, cis-N-({4-methyl-2-[6-methyl-3-(2H-1,2,3-triazol-2-yl)pyridine-2-carbonyl]-2-azabicyclo[3.1.1]heptan-3-yl}methyl)-6-(trifluoromethyl)pyrazin-2-amine], the “OX1 pKi (SPA binding)” value in experiment [1] is listed as 6.85. Also, in experiment [2], the “OX2 pKi (SPA binding)” value was 5.29.

In the case of `Cc1ccc(-n2nccn2)c(C(=O)N2C3CC(C3)[C@@H](C)C2CNc2nc3ccc(F)cc3o2)n1` (mixture of isomers) [Example 218, cis-6-fluoro-N-({4-methyl-2-[6-methyl-3-(2H-1,2,3-triazol-2-yl)pyridine-2-carbonyl]-2-azabicyclo[3.1.1]heptan-3-yl}methyl)-1,3-benzoxazol-2-amine], in experiment [1], the “OX1 pKi (SPA binding)” value amounted to 8.33. Moreover, the “OX2 pKi (SPA binding)” value in experiment [2] is listed as 5.47.

As for `C[C@@H]1C2CC(C2)N(C(=O)c2cc(F)ccc2-n2nccn2)C1CNc1cnc(C(F)(F)F)cn1` (mixture of isomers) [Example 221, cis-N-({2-[5-fluoro-2-(2H-1,2,3-triazol-2-yl)benzoyl]-4-methyl-2-azabicyclo[3.1.1]heptan-3-yl}methyl)-5-(trifluoromethyl)pyrazin-2-amine], the “OX1 pKi (SPA binding)” value in experiment [1] stood at 7.73. Also, in experiment [2], the “OX2 pKi (SPA binding)” value turned out to be 4.94.

Turning to `C[C@@H]1C2CC(C2)N(C(=O)c2cc(F)ccc2-n2nccn2)C1CNc1nc2cccnc2s1` (mixture of isomers) [Example 228, cis-N-({2-[5-fluoro-2-(2H-1,2,3-triazol-2-yl)benzoyl]-4-methyl-2-azabicyclo[3.1.1]heptan-3-yl}methyl)-[1,3]thiazolo[5,4-b]pyridin-2-amine], the “OX1 pKi (SPA binding)” value in experiment [1] came to 7.94. Besides, the “OX2 pKi (SPA binding)” value in experiment [2] stood at 5.04.

For the molecule `C[C@@H]1C2CC(C2)N(C(=O)c2cc(Cl)ccc2-n2nccn2)C1CNc1nc2cccnc2s1` (mixture of isomers) [Example 234, cis-N-({2-[5-chloro-2-(2H-1,2,3-triazol-2-yl)benzoyl]-4-methyl-2-azabicyclo[3.1.1]heptan-3-yl}methyl)-[1,3]thiazolo[5,4-b]pyridin-2-amine], in experiment [1], the “OX1 pKi (SPA binding)” value is listed as 8.45. The “OX2 pKi (SPA binding)” value in experiment [2] is listed as 5.46.

Take `C[C@@H]1C2CC(C2)N(C(=O)c2cc(C#N)ccc2-n2nccn2)C1CNc1cnc(C(F)(F)F)cn1` (mixture of isomers) [Example 237, cis-3-[4-methyl-3-({[5-(trifluoromethyl)pyrazin-2-yl]amino}methyl)-2-azabicyclo[3.1.1]heptane-2-carbonyl]-4-(2H-1,2,3-triazol-2-yl)benzonitrile]: in experiment [1], the “OX1 pKi (SPA binding)” value turned out to be 7.33. For the same molecule, the “OX2 pKi (SPA binding)” value in experiment [2] turned out to be 4.82.

`C[C@@H]1C2CC(C2)N(C(=O)c2cc(C#N)ccc2-n2nccn2)C1CNc1cnc2cc(F)ccc2n1` (mixture of isomers) [Example 238, cis-3-(3-{[(6-fluoroquinoxalin-2-yl)amino]methyl}-4-methyl-2-azabicyclo[3.1.1]heptane-2-carobnyl)-4-(2H-1,2,3-triazol-2-yl)benzonitrile]: in experiment [1], the “OX1 pKi (SPA binding)” value was 7.98. In addition, the “OX2 pKi (SPA binding)” value in experiment [2] is given as 6.32.

In the case of `C[C@@H]1C2CC(C2)N(C(=O)c2cc(Cl)ccc2-n2nccn2)C1CNc1nc2cccnc2o1` (mixture of isomers) [Example 242, cis-N-({2-[5-chloro-2-(2H-1,2,3-triazol-2-yl)benzoyl]-4-methyl-2-azabicyclo[3.1.1]heptan-3-yl}methyl)-[1,3]oxazolo[5,4-b]pyridin-2-amine], the “OX1 pKi (SPA binding)” value in experiment [1] was 8.1. Moreover, the “OX2 pKi (SPA binding)” value in experiment [2] stood at 5.14.

Regarding `C[C@@H]1C2CC(C2)N(C(=O)c2nn(C)cc2-c2ncccn2)C1CNc1cnc(C(F)(F)F)cn1` (mixture of isomers) [Example 245, cis-N-({4-methyl-2-[1-methyl-4-(pyrimidin-2-yl)-1H-pyrazole-3-carbonyl]-2-azabicyclo[3.1.1]heptan-3-yl}methyl)-5-(trifluoromethyl)pyrazin-2-amine], in experiment [1], the “OX1 pKi (SPA binding)” value came to 7.55. In addition, the “OX2 pKi (SPA binding)” value in experiment [2] stood at 4.49.

For `C[C@@H]1C2CC(C2)N(C(=O)c2ccc(Cl)cc2-n2nccn2)C1CNc1cnc(C(F)(F)F)cn1` (mixture of isomers) [Example 246, cis-N-({2-[4-chloro-2-(2H-1,2,3-triazol-2-yl)benzoyl]-4-methyl-2-azabicyclo[3.1.1]heptan-3-yl}methyl)-5-(trifluoromethyl)pyrazin-2-amine], in experiment [1], the “OX1 pKi (SPA binding)” value was 7.57. Besides, the “OX2 pKi (SPA binding)” value in experiment [2] is listed as 5.61.

Consider `Cc1ccc(-c2ncccn2)c(C(=O)N2C3CC(C3)[C@@H](C)C2CNc2cnc(C(F)(F)F)cn2)n1` (mixture of isomers) [Example 248, cis-N-({4-methyl-2-[6-methyl-3-(pyrimidin-2-yl)pyridine-2-carbonyl]-2-azabicyclo[3.1.1]heptan-3-yl}methyl)-5-(trifluoromethyl)pyrazin-2-amine], for which the “OX1 pKi (SPA binding)” value in experiment [1] came to 7.76. Moreover, in experiment [2], the “OX2 pKi (SPA binding)” value was found to be 4.58.

These data come from US11660293B2, “Substituted 2-azabicyclo[3.1.1]heptane and 2-azabicyclo[3.2.1]octane derivatives as orexin receptor antagonists” (Chronos Therapeutics Limited, priority 2017, dated 2023).
